Assay results published in patent US10344002B2, “Compositions and methods for treating metabolic disorders” (NuSirt Sciences, Inc., priority 2016, dated 2019).

Legend:
C2C12 muscle cells [1] = assay: Fatty acid oxidation (oxygen consumption rate, Seahorse XF-24) in C2C12 muscle cells; type: cell-based; conditions: same system
Protocol: Cell Culture: C2C12 muscle cells were seeded with 40,000 cells per well on Seahorse tissue culture plates in Dulbecco's modified eagle's medium (DMEM) containing 10% fetal bovine serum (FBS) and antibiotics (1% penicillin-streptomycin) at 37° C. in 5% CO2. After reaching confluency (24 hours), cells were induced to differentiate with DMEM containing 2% Horse Serum for 3 to 4 days until myotubes were fully formed. Cells were then treated with indicated concentration of Compound 2 for 24 hours.
(§1) Compound 2 was dissolved in 100% DMSO to a stock concentration of 100 mM. This stock was further diluted to indicated concentrations in DMEM media.
Fatty acid oxidation: Baseline and palmitate-stimulated oxygen consumption rates were measured with XF-24 analyzer (Seahorse Bioscience (now part of Agilent Technologies), MA, USA). After 24 hour treatment with Compound 2 of differentiated C2C12 muscle cells, cells were washed twice with non-buffered carbonate-free pH 7.4 low glucose (2.5 mM) DMEM containing carnitine (0.5 mM), equilibrated with 600 μl of the same media in a non-CO2 incubator for 45 minutes, and then inserted into the instrument for 15 minutes of further equilibration, followed by O2 consumption measurement. Three successive baseline measures at five-minute intervals were taken prior to injection of palmitate (200 μM final concentration). Sets of three five-minute intervals followed by 10-minute time delay were continued over a 2 to 3 hour period after palmitate injection. The area under the curve of 02 consumption change from baseline for each sample was then calculated and used for subsequent analysis. Data are represented as mean±SD for each treatment group.

HepG2 liver cells [2] = assay: Lipid accumulation (Oil Red Staining) in HepG2 liver cells induced with high glucose plus insulin; type: cell-based; conditions: same system
Protocol: Cell Culture: HepG2 liver cells were seeded with 80,000 cells per well on 24-well tissue culture plates in low glucose (5 mM) DMEM containing 10% FBS and antibiotics. After 24 hours of attachment, lipid accumulation was induced by incubating cells with high glucose (25 mM) DMEM (10% FBS, 1% Pen-Strep) plus 100 nM insulin for 48 hours. Cells were then treated with indicated concentrations of Compound 2 for an additional 48 hours.
as §1
Lipid accumulation (Oil Red Staining): HepG2 liver cells were seeded and treated as described above. After 48 hours of treatment with Compound 2, lipid accumulation in HepG2 was measured via Oil Red Staining. Cells were washed with phosphate buffered saline (PBS) once, then cells were fixated with 10% formalin for 1 hour. After removal of the formalin, cells were washed with ddH2O twice, then washed with 60% isopropanol. Cells were dried completely. Cells were stained with Oil Red working solution (˜5 mM) for 25 minutes, then immediately washed with ddH2O four times, then dried completely again. Oil Red dye was eluted with 100% isopropanol and absorbance was read at 500 nm. Unstained cells plus isopropanol was used as a blank and subtracted from all readings. Data are represented as mean±SEM for each treatment group.

C2C12 muscle cells [3] = conditions: same system, metformin alone; cited from earlier work
HepG2 liver cells [4] = conditions: same system, metformin alone; cited from earlier work

## CN(C)C(=N)NC(=N)N [metformin, Metformin, reference compound]
C2C12 muscle cells [1]
  fold higher concentration (in comparison with Compound 2) for fat oxidation: 100,000 fold
HepG2 liver cells [2]
  fold higher concentration (in comparison with Compound 2) for reducing hepatic lipids: 100,000 fold
C2C12 muscle cells [3]
  concentration below which fat oxidation is not stimulated: ≥ 1 mM
HepG2 liver cells [4]
  concentration below which hepatic lipids are not reduced: ≥ 1 mM
